# Literature values as cited in US20260335397A1, “TREATMENT OF GEOGRAPHIC ATROPHY” (Apellis Pharmaceuticals, Inc., priority 2022, published 2026).
# Where a SMILES comes first, the peptide text is derived from it. Bridges are numbered along the chain shown (N, C = ends). [ ]: non-standard residue; d: D form. Abu = CC[C@H](N)C(=O)O
# Test system: complement activation
# Details: relative to compstatin (C-terminally amidated); published data; cited from earlier work
row,Compound,Activity over compstatin
1,CC[C@H](C)[C@H](NC(C)=O)C(=O)N[C@H]1CSSC[C@@H](C(=O)N[C@H](C(=O)O)[C@@H](C)O)NC(=O)[C@H](CCCNC(=N)N)NC(=O)[C@H](Cc2c[nH]cn2)NC(=O)[C@H](C)NC(=O)CNC(=O)[C@H](Cc2c[nH]c3ccccc23)NC(=O)[C@H](CC(=O)O)NC(=O)[C@H](CCC(N)=O)NC(=O)[C@H](Cc2ccc3ccccc3c2)NC(=O)[C@H](C(C)C)NC1=O [Ac V4(2-Nal)/H9A-OH],38xmore
2,CC[C@H](C)[C@H](NC(C)=O)C(=O)N[C@H]1CSSC[C@@H](C(=O)N[C@H](C(=O)O)[C@@H](C)O)NC(=O)[C@H](CCCNC(=N)N)NC(=O)[C@H](Cc2c[nH]cn2)NC(=O)[C@H](C)NC(=O)CNC(=O)[C@H](Cc2c[nH]c3ccccc23)NC(=O)[C@H](CC(=O)O)NC(=O)[C@H](CCC(N)=O)NC(=O)[C@H](Cc2ccc(C(=O)c3ccccc3)cc2)NC(=O)[C@H](C(C)C)NC1=O [Ac-V4(Bpa)/H9A-OH],49xmore
3,CC[C@@H]1NC(=O)CNC(=O)[C@H](Cc2c[nH]c3ccccc23)NC(=O)[C@H](CC(=O)O)NC(=O)[C@H](CCC(N)=O)NC(=O)[C@H](Cc2c[nH]c3ccccc23)NC(=O)[C@H](C(C)C)NC(=O)[C@@H](NC(=O)[C@@H](NC(C)=O)[C@@H](C)CC)CSSC[C@@H](C(=O)N[C@H](C(N)=O)[C@@H](C)O)NC(=O)[C@H](CCCNC(=N)N)NC(=O)[C@H](Cc2c[nH]cn2)NC1=O [Ac-V4W/H9(2-Abu)] (Ac-ICVWQDWG[Abu]HRCT-NH2; disulfide 2-12),64xmore
4,CC[C@H](C)[C@H](NC(C)=O)C(=O)N[C@H]1CSSC[C@@H](C(=O)N[C@H](C(N)=O)[C@@H](C)O)NC(=O)[C@H](CCCNC(=N)N)NC(=O)[C@H](Cc2c[nH]cn2)NC(=O)[C@H](C)NC(=O)CNC(=O)[C@H](Cc2c[nH]c3ccc(F)cc23)NC(=O)[C@H](CC(=O)O)NC(=O)[C@H](CCC(N)=O)NC(=O)[C@H](Cc2c[nH]c3ccccc23)NC(=O)[C@H](C(C)C)NC1=O [Ac-V4W/W7(5fW)/H9A],121xmore
5,CC[C@H](C)[C@H](NC(C)=O)C(=O)N[C@H]1CSSC[C@@H](C(=O)N[C@H](C(N)=O)[C@@H](C)O)NC(=O)[C@H](CCCNC(=N)N)NC(=O)[C@H](Cc2c[nH]cn2)NC(=O)[C@H](C)NC(=O)CNC(=O)[C@H](Cc2c[nH]c3ccccc23)NC(=O)[C@H](CC(=O)O)NC(=O)[C@H](CCC(N)=O)NC(=O)[C@H](Cc2csc3ccccc23)NC(=O)[C@H](C(C)C)NC1=O [Ac-V4(Bta)/H9A],64xmore
6,CC[C@H](C)[C@H](NC(C)=O)C(=O)N[C@H]1CSSC[C@@H](C(=O)N[C@H](C(N)=O)[C@@H](C)O)NC(=O)[C@H](CCCNC(=N)N)NC(=O)[C@H](Cc2c[nH]cn2)NC(=O)[C@H](C)NC(=O)CNC(=O)[C@H](Cc2c[nH]c3ccccc23)NC(=O)[C@H](CC(=O)O)NC(=O)[C@H](CCC(N)=O)NC(=O)[C@H](Cc2ccc3ccccc3c2)NC(=O)[C@H](C(C)C)NC1=O [Ac-V4(2-Nal)/H9A],99xmore
7,CC[C@H](C)[C@H](NC(C)=O)C(=O)N[C@H]1CSSC[C@@H](C(=O)N[C@H](C(=O)O)[C@@H](C)O)NC(=O)[C@H](CCCNC(=N)N)NC(=O)[C@H](Cc2c[nH]cn2)NC(=O)[C@H](C)NC(=O)CNC(=O)[C@H](Cc2c[nH]c3ccccc23)NC(=O)[C@H](CC(=O)O)NC(=O)[C@H](CCC(N)=O)NC(=O)[C@H](Cc2cccc3ccccc23)NC(=O)[C@H](C(C)C)NC1=O [Ac V4(1-Nal)/H9A-OH],30xmore
8,CC[C@H](C)[C@H](NC(C)=O)C(=O)N[C@H]1CSSC[C@@H](C(=O)N[C@@H](C(=O)O)[C@H](C)O)NC(=O)[C@H](CCCNC(=N)N)NC(=O)[C@H](Cc2c[nH]cn2)NC(=O)[C@H](C)NC(=O)CNC(=O)[C@H](Cc2c[nH]c3ccccc23)NC(=O)[C@H](CC(=O)O)NC(=O)[C@H](CCC(N)=O)NC(=O)[C@H](Cc2c[nH]c3ccccc23)NC(=O)[C@H](C(C)C)NC1=O [Ac-V4W/H9A/T13dT-OH],55xmore
9,CC[C@H](C)[C@H](NC(C)=O)C(=O)N[C@H]1CSSC[C@@H](C(=O)N[C@H](C(N)=O)[C@@H](C)O)NC(=O)[C@H](CCCNC(=N)N)NC(=O)[C@H](Cc2c[nH]cn2)NC(=O)[C@H](C)NC(=O)CNC(=O)[C@H](Cc2c[nH]c3ccccc23)NC(=O)[C@H](CC(=O)O)NC(=O)[C@H](CCC(N)=O)NC(=O)[C@H](C2Cc3ccccc3C2)NC(=O)[C@H](C(C)C)NC1=O [Ac-V42Igl/H9A],39xmore
10,CC[C@H](C)[C@H](NC(C)=O)C(=O)N[C@H]1CSSC[C@@H](C(=O)N[C@H](C(N)=O)[C@@H](C)O)NC(=O)[C@H](CCCNC(=N)N)NC(=O)[C@H](Cc2c[nH]cn2)NC(=O)[C@H](C)NC(=O)CNC(=O)[C@H](Cc2c[nH]c3ccccc23)NC(=O)[C@H](CC(=O)O)NC(=O)[C@H](CCC(N)=O)NC(=O)[C@H](Cc2c[nH]c3ccc(C)cc23)NC(=O)[C@H](C(C)C)NC1=O [Ac-V4(5-MeW)/H9A],67xmore
11,CC[C@H](C)[C@H](NC(C)=O)C(=O)N[C@H]1CSSC[C@@H](C(=O)N[C@H](C(N)=O)[C@@H](C)O)NC(=O)[C@H](CCCNC(=N)N)NC(=O)[C@H](Cc2c[nH]cn2)NC(=O)[C@H](C)NC(=O)CNC(=O)[C@H](Cc2c[nH]c3ccccc23)NC(=O)[C@H](CC(=O)O)NC(=O)[C@H](CCC(N)=O)NC(=O)[C@H](Cc2ccc(C(=O)c3ccccc3)cc2)NC(=O)[C@H](C(C)C)NC1=O [Ac-V4(Bpa)/H9A],86xmore
12,CC[C@H](C)[C@H](NC(C)=O)C(=O)N[C@H]1CSSC[C@@H](C(=O)N[C@H](C(N)=O)[C@@H](C)O)NC(=O)[C@H](CCCNC(=N)N)NC(=O)[C@H](Cc2c[nH]cn2)NC(=O)[C@H](Cc2c[nH]cn2)NC(=O)CNC(=O)[C@H](Cc2c[nH]c3ccccc23)NC(=O)[C@H](CC(=O)O)NC(=O)[C@H](CCC(N)=O)NC(=O)[C@H](C(C)C)NC(=O)[C@H](C(C)C)NC1=O [Ac-compstatin],3xmore
13,CC[C@H](C)[C@H](NC(C)=O)C(=O)N[C@H]1CSSC[C@@H](C(=O)N[C@H](C(N)=O)[C@@H](C)O)NC(=O)[C@H](CCCNC(=N)N)NC(=O)[C@H](Cc2c[nH]cn2)NC(=O)[C@H](C)NC(=O)CNC(=O)[C@H](Cc2c[nH]c3ccc(F)cc23)NC(=O)[C@H](CC(=O)O)NC(=O)[C@H](CCC(N)=O)NC(=O)[C@H](Cc2cn(C)c3ccccc23)NC(=O)[C@H](C(C)C)NC1=O [Ac-V4(1MeW)/W7(5fW)/H9A],264xmore
14,CC[C@H](C)[C@H](NC(C)=O)C(=O)N[C@H]1CSSC[C@@H](C(=O)N[C@H](C(N)=O)[C@@H](C)O)NC(=O)[C@H](CCCNC(=N)N)NC(=O)[C@H](Cc2c[nH]cn2)NC(=O)[C@H](C)NC(=O)CNC(=O)[C@H](Cc2c[nH]c3ccccc23)NC(=O)[C@H](CC(=O)O)NC(=O)[C@H](CCC(N)=O)NC(=O)[C@H](Cc2c[nH]c3ccc(F)cc23)NC(=O)[C@H](C(C)C)NC1=O [Ac-V4(5fW)/H9A],31xmore
15,CC[C@H](C)[C@H](NC(C)=O)C(=O)N[C@H]1CSSC[C@@H](C(=O)N[C@H](C(=O)O)[C@@H](C)O)NC(=O)[C@H](CCCNC(=N)N)NC(=O)[C@H](Cc2c[nH]cn2)NC(=O)[C@H](C)NC(=O)CNC(=O)[C@H](Cc2c[nH]c3ccccc23)NC(=O)[C@H](CC(=O)O)NC(=O)[C@H](CCC(N)=O)NC(=O)[C@H](Cc2csc3ccccc23)NC(=O)[C@H](C(C)C)NC1=O [Ac-V4(Bta)/H9A-OH],65xmore
16,CC[C@H](C)[C@H](NC(C)=O)C(=O)N[C@H]1CSSC[C@@H](C(=O)N[C@H](C(N)=O)[C@@H](C)O)NC(=O)[C@H](CCCNC(=N)N)NC(=O)[C@H](Cc2c[nH]cn2)NC(=O)[C@H](C)NC(=O)CNC(=O)[C@H](Cc2c[nH]c3ccccc23)NC(=O)[C@H](CC(=O)O)NC(=O)[C@H](CCC(N)=O)NC(=O)[C@H](Cc2c[nH]c3ccccc23)NC(=O)[C@H](C(C)C)NC1=O [Ac-V4W/H9A],45xmore
17,CC[C@H](C)[C@H](NC(C)=O)C(=O)N[C@H]1CSSC[C@@H](C(=O)N[C@H](C(=O)O)[C@@H](C)O)NC(=O)[C@H](CCCNC(=N)N)NC(=O)[C@H](Cc2c[nH]cn2)NC(=O)[C@H](C)NC(=O)CNC(=O)[C@H](Cc2c[nH]c3ccccc23)NC(=O)[C@H](CC(=O)O)NC(=O)[C@H](CCC(N)=O)NC(=O)[C@H](C2Cc3ccccc3C2)NC(=O)[C@H](C(C)C)NC1=O [Ac-V42Igl/H9A-OH],37xmore
18,CC[C@H](C)[C@H](NC(C)=O)C(=O)N[C@H]1CSSC[C@@H](C(=O)N[C@H](C(N)=O)[C@@H](C)O)NC(=O)[C@H](CCCNC(=N)N)NC(=O)[C@H](Cc2c[nH]cn2)NC(=O)[C@H](C)NC(=O)CNC(=O)[C@H](Cc2c[nH]c3ccccc23)NC(=O)[C@H](CC(=O)O)NC(=O)[C@H](CCC(N)=O)NC(=O)[C@H](Cc2ccc(O)cc2)NC(=O)[C@H](C(C)C)NC1=O [Ac-V4Y/H9A],14xmore
19,CC[C@H](C)[C@H](NC(=O)CN)C(=O)N[C@H]1CSSC[C@@H](C(=O)N[C@H](C(=O)N[C@@H](CC(N)=O)C(=O)O)[C@@H](C)O)NC(=O)[C@H](CCCNC(=N)N)NC(=O)[C@H](Cc2c[nH]cn2)NC(=O)[C@H](C)NC(=O)CNC(=O)[C@H](Cc2c[nH]c3cc(F)ccc23)NC(=O)[C@H](CC(=O)O)NC(=O)[C@H](CCC(N)=O)NC(=O)[C@H](Cc2c[nH]c3cc(F)ccc23)NC(=O)[C@H](C(C)C)NC1=O [+G/V4(6fW)/W7(6fW)H9A+N-OH],126xmore
